Two compounds from patent US5939414A, “Benzodiazepine hydrazide derivatives as inhibitors of HIV integrase” (Merck & Co., Inc., priority 1997, dated 1999) can be followed below.

Assay [1] concerns the target T1, HIV-1 integrase (Human immunodeficiency virus type 1 group M subtype B, UniProt P04585). Nature of the assay: biochemical. Also noted: HIV-1 integrase. How it is done:
HIV Integrase Assay: Substrate Cleavage
An assay for trimming of 3' end of HIV long terminal repeat terminus by HIV-1 integrase was conducted according to LaFemina, E. R. et al., J. Virol. 10, 5624 (1991), herein incorporated by reference for these purposes. To assay inhibition of HIV integrase substrate cleavage, the reaction was conducted with inhibitor having various concentrations in the range of 0.1 to 100 μM.

In assay [2] the target is T1, HIV-1 integrase. Nature of the assay: Assembly of HIV-1 integrase as catalytically active complex. Also noted: HIV-1 Integrase. Format: biochemical. How it is done:
Assay for Assembly of HIV-1 Integrase as Catalytically Active Complex
Inhibition of assembly of HIV-1 Integrase was conducted according to Wolfe, A. L. et al., J. Virol. 70, 1424 (1996), herein incorporated by reference for these purposes.

Assay [3] deals with T2, HIV integrase (Human immunodeficiency virus type 1 group M subtype B, UniProt P04585).
T2 construct: HIV Integrase
As to the kind of experiment: Inhibition of strand transfer by HIV integrase. Format: biochemical. How it is done: Assay for Inhibition of Strand Transfer by HIV Integrase
Inhibition of strand transfer was conducted according to Hazuda, D. J. et al. Nucleic Acids Res., 22, 1121 (1994), hereby incorporated by reference for these purposes.

What is called IC50 is the concentration at which inhibition is half-maximal. Lower therefore signals higher potency.

For the compound `O=C(NNC1=Nc2ccccc2C(c2ccccc2)=NC1)c1cnccn1` [Compound VI], the IC50 is 2 µM in assay [1], 5 µM in assay [2] and 2 to 3 µM in assay [3].

For the compound `Cc1[nH]cnc1C(=O)NNC1=Nc2ccc(Br)cc2C(c2ccccc2Cl)=NC1` [Compound VII], the IC50 came out at 2 µM in assay [1], 10 µM in assay [2] and 5 µM in assay [3].
